The text below walks through data of US20250163104A1, “MACROCYCLIC IMMUNOMODULATORS” (priority 2021, published 2025).

The assay concerns the target T1, human PD-1 / PD-L1-Ig binding on Jurkat cell line over-expressing human PD-1 (Jurkat-PD-1) (Homo sapiens, UniProt Q15116).
T1 construct: expressed in transfected cells; host or cells: Jurkat
The assay can be described thus: Jurkat-PD-1 Cell Binding High-Content Screening Assay (CBA). The format is cell-based. The note with it: Jurkat-PD-1 cells, PE-labeled PD-L1-Ig 20 nM final; read-out: Jurkat HPD1_PDL1 IC50. The method, boiled down: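 Jurkat cells over-expressing human PD-1, in DMEM/10% FCS, pre-incubated with compound 2 h at 37° C. PE-labeled human PD-L1-Ig (20 nM final) added for 1 h; cells fixed in paraformaldehyde with Hoechst 33342 nuclear stain, washed, and bound fluorescence quantified by high-content imaging.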

SMILES strings stand for the structures. Where a SMILES comes first, the peptide text is derived from it. Bridges are numbered along the chain shown (N, C = ends). [ ]: non-standard residue; d: D form. The star is where a group is joined. ξ: configuration not given here. Ala(indol-4-yl) = N[C@@H](Cc1cccc2[nH]ccc12)C(=O)O; Phe(3-CF3) = N[C@@H](Cc1cccc(C(F)(F)F)c1)C(=O)O; Ala(morpholin-4-yl) = N[C@@H](CN1CCOCC1)C(=O)O; Phe(4-COOH) = N[C@@H](Cc1ccc(C(=O)O)cc1)C(=O)O; Phe(3,5-F2) = N[C@@H](Cc1cc(F)cc(F)c1)C(=O)O; Asp(3,3-Me2) = CC(C)(C(=O)O)[C@H](N)C(=O)O; Bip = N[C@@H](Cc1ccc(-c2ccccc2)cc1)C(=O)O; Phe(4-CN) = N#Cc1ccc(C[C@H](N)C(=O)O)cc1; Phe(3-Me) = Cc1cccc(C[C@H](N)C(=O)O)c1; 4Pal = N[C@@H](Cc1ccncc1)C(=O)O; 2Thi = N[C@@H](Cc1cccs1)C(=O)O; Cha = N[C@@H](CC1CCCCC1)C(=O)O; Cit = NC(=O)NCCC[C@H](N)C(=O)O; Thr(3ξ) = CC(O)[C@H](N)C(=O)O; Phg = N[C@H](C(=O)O)c1ccccc1; Carboxymethyl = O=C(O)C*; Orn = NCCC[C@H](N)C(=O)O; Dab = NCC[C@H](N)C(=O)O; Dap = NC[C@H](N)C(=O)O

T1 sequence (Q15116 25-288): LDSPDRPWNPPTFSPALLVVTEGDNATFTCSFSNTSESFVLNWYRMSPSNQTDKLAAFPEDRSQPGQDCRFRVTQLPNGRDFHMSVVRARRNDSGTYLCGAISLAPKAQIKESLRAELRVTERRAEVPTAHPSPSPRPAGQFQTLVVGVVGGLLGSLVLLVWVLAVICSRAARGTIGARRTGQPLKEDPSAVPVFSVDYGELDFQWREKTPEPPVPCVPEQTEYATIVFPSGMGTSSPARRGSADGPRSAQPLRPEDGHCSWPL

With `CC[C@H](C)[C@@H]1NC(=O)[C@H](Cc2ccc(-c3ccccc3)cc2)NC(=O)[C@H](C(C)C)NC(=O)[C@H](Cc2c[nH]c3ccccc23)NC(=O)[C@H](CC(=O)O)NC(=O)[C@H](Cc2ccc(C(=O)O)cc2)NC(=O)[C@H](Cc2ccncc2)NC(=O)CSC[C@@H](C(=O)N[C@@H](C)C(N)=O)NC(=O)[C@H]([C@@H](C)O)NC(=O)[C@H](C(C)C)NC(=O)[C@H](CC(C)C)NC(=O)[C@H](CCN)NC(=O)[C@@H](CC(C)C)NC(=O)[C@H](CCCN)NC1=O` [Compound 1055] ({CH2CO}-[4Pal][Phe(4-COOH)]DWV[Bip]I[Orn][dL][Dab]LVTCA-NH2; thioether N-14), the IC50 is 5.8 nM. In the case of `CC[C@H](C)[C@@H]1NC(=O)[C@H](Cc2ccc(-c3ccccc3)cc2)NC(=O)[C@H](CC(C)C)NC(=O)[C@H](Cc2c[nH]c3ccccc23)NC(=O)[C@H](CC(=O)O)NC(=O)[C@H](Cc2ccc(O)cc2)NC(=O)[C@H](Cc2ccccc2)NC(=O)CSC[C@@H](C(=O)NCC(N)=O)NC(=O)[C@H](CO)NC(=O)[C@H](C(C)C)NC(=O)[C@H](CC(C)C)NC(=O)[C@H](CCN)NC(=O)[C@@H](CC(C)C)NC(=O)[C@H](CCCN)NC1=O` [Compound 1230] ({CH2CO}-FYDWL[Bip]I[Orn][dL][Dab]LVSCG-NH2; thioether N-14), the concentration for half-maximal inhibition (IC50) came out at 18.1 nM. For the molecule `CC(C)C[C@H]1NC(=O)[C@H](CCCN)NC(=O)[C@H](CCC(=O)O)NC(=O)[C@H](Cc2ccc(-c3ccccc3)cc2)NC(=O)[C@H](C(C)C)NC(=O)[C@H](Cc2c[nH]c3ccccc23)NC(=O)[C@H](CC(=O)O)NC(=O)[C@H](Cc2ccc(OCC(=O)O)cc2)NC(=O)[C@H](CN)NC(=O)CSC[C@@H](C(=O)N[C@@H](C)C(N)=O)NC(=O)[C@H]([C@@H](C)O)NC(=O)[C@H](C(C)C)NC(=O)[C@H](CC2CCCCC2)NC(=O)[C@H](CCN)NC1=O` [Compound 1425], the IC50 was 16.8 nM. Regarding `CCC(C)[C@@H]1NC(=O)[C@H](Cc2ccc(-c3ccccc3)cc2)NC(=O)[C@H](C(C)C)NC(=O)[C@H](Cc2ccc(F)c(C(F)(F)F)c2)NC(=O)[C@H](CC(=O)O)NC(=O)[C@H](Cc2ccc(OCC(=O)O)cc2)NC(=O)[C@H](CN)NC(=O)CSC[C@@H](C(=O)N[C@@H](C)C(N)=O)NC(=O)[C@H]([C@@H](C)O)NC(=O)[C@H](C(C)C)NC(=O)[C@H](CC2CCCCC2)NC(=O)[C@H](CCN)NC(=O)[C@@H](CC(C)C)NC(=O)[C@H](CCCN)NC1=O` (some centres unmarked) [Compound 2245], the IC50 worked out at 45.5 nM. Turning to `CC(C)C[C@H]1NC(=O)[C@H](CCCN)NC(=O)[C@H](Cc2ccc(C(=O)O)cc2)NC(=O)[C@H](Cc2ccc(-c3ccccc3)cc2)NC(=O)[C@H](Cc2cccc3[nH]ccc23)NC(=O)[C@H](Cc2cccc(C(F)(F)F)c2)NC(=O)[C@H](CC(=O)O)NC(=O)[C@H](Cc2ccc(C(=O)O)cc2)NC(=O)[C@H](CN2CCOCC2)NC(=O)CSC[C@@H](C(=O)N[C@@H](CCN)C(N)=O)NC(=O)[C@H](CCC(=O)O)NC(=O)[C@H](C(C)C)NC(=O)[C@H](CC2CCCCC2)NC(=O)[C@H](CCN)NC1=O` [Example 2742] ({CH2CO}-[Ala(morpholin-4-yl)][Phe(4-COOH)]D[Phe(3-CF3)][Ala(indol-4-yl)][Bip][Phe(4-COOH)][Orn][dL][Dab][Cha]VEC[Dab]-NH2; thioether N-14), the IC50 is 4.6 nM. Regarding `CC(C)C[C@H]1NC(=O)[C@H](CCCN)NC(=O)[C@H](CCCNC(N)=O)NC(=O)[C@H](Cc2ccc(-c3ccccc3)cc2)NC(=O)[C@H](C(C)C)NC(=O)[C@H](Cc2c[nH]c3ccccc23)NC(=O)[C@H](CC(=O)O)NC(=O)[C@H](Cc2ccc(C#N)cc2)NC(=O)[C@H](CN)NC(=O)CSC[C@@H](C(=O)N[C@@H](C)C(N)=O)NC(=O)[C@H]([C@@H](C)O)NC(=O)[C@H](C(C)C)NC(=O)[C@H](CC2CCCCC2)NC(=O)[C@H](CCN)NC1=O` [Compound 2101] ({CH2CO}-[Dap][Phe(4-CN)]DWV[Bip][Cit][Orn][dL][Dab][Cha]VTCA-NH2; thioether N-14), the IC50 was found to be 6.6 nM. The same measure for `CC(C)C[C@H]1NC(=O)[C@H](CCCN)NC(=O)[C@H](CCC(=O)O)NC(=O)[C@H](Cc2ccc(-c3ccccc3)cc2)NC(=O)[C@H](C(C)C)NC(=O)[C@H](Cc2c[nH]c3ccccc23)NC(=O)[C@H](CC(=O)O)NC(=O)[C@H](Cc2ccc(OCC(=O)O)cc2)NC(=O)[C@H](Cc2cnc[nH]2)NC(=O)CSC[C@@H](C(=O)N[C@@H](CC(N)=O)C(N)=O)NC(=O)[C@H](C(C)O)NC(=O)[C@H](C(C)C)NC(=O)[C@H](CC2CCCCC2)NC(=O)[C@H](CCN)NC1=O` (stereo partly drawn) [Compound 2562] ({CH2CO}-HY(Carboxymethyl)DWV[Bip]E[Orn][dL][Dab][Cha]V[Thr(3ξ)]CN-NH2; thioether N-14): 6.5 nM; for `CC[C@H](C)[C@@H]1NC(=O)[C@H](Cc2ccc(-c3ccccc3)cc2)NC(=O)[C@H](c2ccccc2)NC(=O)[C@H](Cc2c[nH]c3ccccc23)NC(=O)[C@H](CC(=O)O)NC(=O)[C@H](Cc2ccc(OCC(=O)O)cc2)NC(=O)[C@H](CN)NC(=O)CSC[C@@H](C(=O)N[C@@H](C)C(N)=O)NC(=O)[C@H]([C@@H](C)O)NC(=O)[C@H](C(C)C)NC(=O)[C@H](CC2CCCCC2)NC(=O)[C@H](CCN)NC(=O)[C@@H](CC(C)C)NC(=O)[C@H](CCCN)NC1=O` [Compound 1728] ({CH2CO}-[Dap]Y(Carboxymethyl)DW[Phg][Bip]I[Orn][dL][Dab][Cha]VTCA-NH2; thioether N-14): 29.2 nM.

Consider `Cc1cccc(C[C@@H]2NC(=O)[C@H](CC(=O)O)NC(=O)[C@H](Cc3ccncc3)NC(=O)[C@H](Cc3ccc(OCC(=O)O)cc3)NC(=O)CSC[C@@H](C(=O)NCC(N)=O)NC(=O)[C@H](CO)NC(=O)[C@H](C(C)C)NC(=O)[C@H](CC(C)C)NC(=O)[C@H](CCN)NC(=O)[C@@H](CC(C)C)NC(=O)[C@H](CCCN)NC(=O)[C@H](C(C)C)NC(=O)[C@H](Cc3ccc(-c4ccccc4)cc3)NC(=O)[C@H](CC(C)C)NC2=O)c1` [Compound 1265] ({CH2CO}-Y(Carboxymethyl)[4Pal]D[Phe(3-Me)]L[Bip]V[Orn][dL][Dab]LVSCG-NH2; thioether N-14), for which the half-maximal inhibitory concentration (IC50) was determined as 7.7 nM. The result for `CC(C)C[C@H]1NC(=O)[C@H](CCCN)NC(=O)[C@H](CCCNC(N)=O)NC(=O)[C@H](Cc2ccc(-c3ccccc3)cc2)NC(=O)[C@H](C(C)C)NC(=O)[C@H](Cc2c[nH]c3ccccc23)NC(=O)[C@H](CC(=O)O)NC(=O)[C@H](Cc2cc(F)cc(F)c2)NC(=O)[C@H](CN)NC(=O)CSC[C@@H](C(=O)N[C@@H](C)C(N)=O)NC(=O)[C@H]([C@@H](C)O)NC(=O)[C@H](C(C)C)NC(=O)[C@H](CC2CCCCC2)NC(=O)[C@H](CCN)NC1=O` [Compound 2131] ({CH2CO}-[Dap][Phe(3,5-F2)]DWV[Bip][Cit][Orn][dL][Dab][Cha]VTCA-NH2; thioether N-14) reads 37.2 nM.

Turning to `CC(C)C[C@H]1NC(=O)[C@H](CCCN)NC(=O)[C@H](CCC(=O)O)NC(=O)[C@H](Cc2ccc(-c3ccccc3)cc2)NC(=O)[C@H](C(C)C)NC(=O)[C@H](Cc2c[nH]c3ccccc23)NC(=O)[C@H](CC(=O)O)NC(=O)[C@H](Cc2cccs2)NC(=O)[C@H](CN)NC(=O)CSC[C@@H](C(=O)N[C@@H](C)C(N)=O)NC(=O)[C@H]([C@@H](C)O)NC(=O)[C@H](C(C)C)NC(=O)[C@H](CC2CCCCC2)NC(=O)[C@H](CCN)NC1=O` [Compound 2192] ({CH2CO}-[Dap][2Thi]DWV[Bip]E[Orn][dL][Dab][Cha]VTCA-NH2; thioether N-14), the IC50 was 18.4 nM. Consider `CC[C@H](C)[C@@H]1NC(=O)[C@H](Cc2ccc(-c3ccccc3)cc2)NC(=O)[C@H](C(C)C)NC(=O)[C@H](Cc2c[nH]c3ccccc23)NC(=O)[C@H](CC(=O)O)NC(=O)[C@H](Cc2ccc(O)cc2)NC(=O)[C@H](CC(N)=O)NC(=O)CSC[C@@H](C(=O)NCC(N)=O)NC(=O)[C@H]([C@@H](C)O)NC(=O)[C@H](C(C)C)NC(=O)[C@H](CC(C)C)NC(=O)[C@H](CCN)NC(=O)[C@@H](CC(C)C)NC(=O)[C@H](CCN)NC1=O` [Compound 1126] ({CH2CO}-NYDWV[Bip]I[Dab][dL][Dab]LVTCG-NH2; thioether N-14), for which the IC50 was found to be 23.9 nM. Consider `Cc1cccc(C[C@@H]2NC(=O)[C@H](CC(=O)O)NC(=O)[C@H](Cc3ccc(OCC(=O)O)cc3)NC(=O)[C@H](CCN)NC(=O)CSC[C@@H](C(=O)N[C@@H](CCN)C(N)=O)NC(=O)[C@H](CO)NC(=O)[C@H](C(C)(C)C(=O)O)NC(=O)[C@H](CC3CCCCC3)NC(=O)[C@H](CCN)NC(=O)[C@@H](CC(C)C)NC(=O)[C@H](CCCN)NC(=O)[C@H](Cc3ccc(OCC(=O)O)cc3)NC(=O)[C@H](Cc3ccc(-c4ccccc4)cc3)NC(=O)[C@H](Cc3ccc(OCC(=O)O)cc3)NC2=O)c1` [Compound 2070] ({CH2CO}-[Dab]Y(Carboxymethyl)D[Phe(3-Me)]Y(Carboxymethyl)[Bip]Y(Carboxymethyl)[Orn][dL][Dab][Cha][Asp(3,3-Me2)]SC[Dab]-NH2; thioether N-14), for which the IC50 stood at 17 nM.

In the case of `CC(C)C[C@H]1NC(=O)[C@H](CCCN)NC(=O)[C@H](CCC(=O)O)NC(=O)[C@H](Cc2ccc(-c3ccccc3)cc2)NC(=O)[C@H](C(C)C)NC(=O)[C@H](Cc2c[nH]c3ccccc23)NC(=O)[C@H](CC(=O)O)NC(=O)[C@H](Cc2ccc(C(=O)O)cc2)NC(=O)[C@H](CC(N)=O)NC(=O)CSC[C@@H](C(=O)N[C@@H](C)C(N)=O)NC(=O)[C@H]([C@@H](C)O)NC(=O)[C@H](C(C)C)NC(=O)[C@H](CC2CCCCC2)NC(=O)[C@H](CCN)NC1=O` [Compound 2157] ({CH2CO}-N[Phe(4-COOH)]DWV[Bip]E[Orn][dL][Dab][Cha]VTCA-NH2; thioether N-14), the half-maximal inhibitory concentration (IC50) came to 8.1 nM.

As a reminder, the IC50 is the midpoint of a concentration-inhibition curve.
